Experiment [1] concerns Candida and Staphylococcus biofilms. Kind of experiment: biofilm assays (sustained inhibition and disruption), bacterial and fungal. The format is cell-based, Candida albicans; Staphylococcus aureus. The note with it: in both assays (sustained inhibition and disruption). As for the experimental part:
(§1) In vitro biofilm formation was tested using two assays, sustained inhibition and disruption. Both assays assess biofilm formed on polystyrene plates. The first, tests the effects of amino acid solution on a developing biofilm, while the latter tests the effects of the solution on a pre-formed mature biofilm, both compared to media without supplemented amino acids.
(§2) Other amino acids in the blood of animals could combat bacterial and fungal biofilm and therefore may be useful in treating these bacterial and fungal infections that would lie on the external surfaces of infected animals such as humans and could also be used to combat these pathogens on instruments and surfaces that need to be treated. Two types of biofilm assays were performed: a sustained inhibition assay and a disruption assay. The sustained inhibition assay assessed the compound's ability to prevent biofilm development throughout all stages of biofilm formation, while the disruption assay assessed the compound's ability to break up an existing mature biofilm.
(§3) For fungal biofilm assays, all solutions were prepared in RPMI 1640 medium. All bacterial biofilm solutions were prepared in Tryptic Soy Broth (TSB), supplemented with 1% glucose (henceforth referred to as TSB-G). All subsequent procedures were performed in a manner that maintained sterility. A solution of each amino acid to be tested was prepared in weight to volume concentrations ranging from 0.1-5.0%. Amino acids were also tested in combinations. Compound solutions were homogenized with gentle agitation in the dark (4° C., 24 hours) before use.
(§4) Fungal strains were streaked on Yeast Peptone Dextrose (YPD) agar plates and incubated at 30° C. for 48 hours. A single colony from each strain to be tested was inoculated into YPD broth and grown for 12 hours, at 30° C., shaking at 225 rpm. For the fungal biofilm inhibition assay, 1 μl of saturated overnight cell culture was added to either 80 μL of RPMI-1640 or RPMI-1640 supplemented with the amino acid compound solution to be tested, in a 384-well plate. The cells were allowed to adhere to the plate for 90 minutes at 37° C. shaking at 350 rpm. Loosely bound cells were washed once with phosphate buffered saline (PBS) and 80 μl of RPMI-1640, or RPMI-1640 supplemented with the amino acid compound solution was added to the plate. The plate was further incubated for 24 hours at 37° C. shaking at 350 rpm. Media was carefully aspirated and the biofilm was measured by optical density at 600 nm. Twelve replicates were performed for each tested condition and the reported values are normalized to the control (RPMI-1640 media only). For the fungal biofilm disruption assays, 80 μL of RPMI-1640 was added to the plate, along with 1 μL of overnight cell culture. The cells were allowed to adhere to the plate for 90 minutes at 37° C. shaking at 350 rpm. Loosely bound cells were washed once with PBS and 80 μL of RPMI-1640 was added to the plate. The plate was further incubated for 24 hours at 37° C. shaking at 350 rpm. Media was carefully aspirated from the mature biofilm and 80 μL of RPMI-1640, or RPMI-1640 supplemented with the amino acid compound solution to be tested, was gently added to the plate. The plate was further incubated for 24 hours at 37° C. shaking at 350 rpm. Media was carefully aspirated and the biofilm was measured by optical density at 600 nm. Twelve replicates were performed for each tested condition and the reported values are normalized to the control (RPMI-1640 media only).
Bacterial strains were streaked on Blood Agar plates (5% sheep blood in Tryptic Soy Agar) and incubated at 37° C. for 24 hours. A single colony from each strain to be tested was inoculated in a TSB broth and grown for 12 hours, at 37° C. shaking at 225 rpm. For the bacterial biofilm inhibition assays, 1 μL of saturated overnight cell culture was added to either 80 μL of TSB-G, or TSB-G supplemented with the amino acid compound solution to be tested, in a 384-well plate. […]

In experiment [2] the test system is C. albicans biofilms. Kind of experiment: in vitro sustained inhibition biofilm assay, fungal. In kind it is cell-based, Candida albicans. The note with it: 1% amino acid, p<0.001. Here is the method:
(§5) Two types of biofilm assays were performed: a sustained inhibition assay and a disruption assay.
as §3
as §4, with “The cells were allowed to adhere to the plate for 90 minutes at 37° C. shaking at 350 rpm. Loosely bound cells were washed once with phosphate buffered saline (PBS) and 80 μl of RPMI-1640, or RPMI-1640 supplemented with the amino acid compound solution was added to the plate. The plate was further incubated for 24 hours at 37° C. shaking at 350 rpm.” left out, “The cells were allowed to adhere to the plate for 90 minutes at 37° C. shaking at 350 rpm.” left out, “The plate was further incubated for 24 hours at 37° C. shaking at 350 rpm.” left out
The plate was further incubated for 24 hours at 37° C. with shaking (350 rpm). Media was carefully aspirated and the biofilm was measured by optical density at 600 nm.

In experiment [3] the test system is fungal biofilms (C. albicans). Kind of experiment: biofilm assays (sustained inhibition and/or disruption), fungal. The settings on record: for anti-biofilm properties against fungal biofilms: administered individually; for anti-biofilm properties against fungal biofilms / effect on fungal biofilm growth: in at least one of the two biofilm assays. The format is cell-based, Candida albicans. As for the experimental part:
Other amino acids in the blood of animals could combat bacterial and fungal biofilm and therefore may be useful in treating these bacterial and fungal infections that would lie on the external surfaces of infected animals such as humans and could also be used to combat these pathogens on instruments and surfaces that need to be treated. Two types of biofilm assays were performed: a sustained inhibition assay and a disruption assay. The sustained inhibition assay assessed the compound's ability to prevent biofilm development throughout all stages of biofilm formation, while the disruption assay assessed the compound's ability to break up an existing mature biofilm. For fungal biofilm assays, all solutions were prepared in RPMI 1640 medium. All bacterial biofilm solutions were prepared in Tryptic Soy Broth (TSB), supplemented with 1% glucose (henceforth referred to as TSB-G). All subsequent procedures were performed in a manner that maintained sterility. […] Amino acids were also tested in combinations. Compound solutions were homogenized with gentle agitation in the dark (4° C., 24 hours) before use. Fungal strains were streaked on Yeast Peptone Dextrose (YPD) agar plates and incubated at 30° C. for 48 hours. A single colony from each strain to be tested was inoculated into YPD broth and grown for 12 hours, at 30° C., shaking at 225 rpm. For the fungal biofilm inhibition assay, 1 μl of saturated overnight cell culture was added to either 80 μL of RPMI-1640 or RPMI-1640 supplemented with the amino acid compound solution to be tested, in a 384-well plate. The cells were allowed to adhere to the plate for 90 minutes at 37° C. shaking at 350 rpm. Loosely bound cells were washed once with phosphate buffered saline (PBS) and 80 μl of RPMI-1640, or RPMI-1640 supplemented with the amino acid compound solution was added to the plate. The plate was further incubated for 24 hours at 37° C. shaking at 350 rpm. Media was carefully aspirated and the biofilm was measured by optical density at 600 nm. Twelve replicates were performed for each tested condition and the reported values are normalized to the control (RPMI-1640 media only). For the fungal biofilm disruption assays, 80 μL of RPMI-1640 was added to the plate, along with 1 μL of overnight cell culture. The cells were allowed to adhere to the plate for 90 minutes at 37° C. shaking at 350 rpm. Loosely bound cells were washed once with PBS and 80 μL of RPMI-1640 was added to the plate. The plate was further incubated for 24 hours at 37° C. shaking at 350 rpm. Media was carefully aspirated from the mature biofilm and 80 μL of RPMI-1640, or RPMI-1640 supplemented with the amino acid compound solution to be tested, was gently added to the plate. The plate was further incubated for 24 hours at 37° C. shaking at 350 rpm. Media was carefully aspirated and the biofilm was measured by optical density at 600 nm. Twelve replicates were performed for each tested condition and the reported values are normalized to the control (RPMI-1640 media only).

The subject of experiment [4] is S. aureus (MRSA) biofilms. Nature of the experiment: in vitro biofilm disruption assay, bacterial. The settings on record: Staphylococcus aureus, 24 h, disruption, S. aureus, 1% amino acid, p<0.001, read-out: Reduce B Biofilm. The format is cell-based. As for the experimental part:
as §1, §2, §3
Bacterial strains were streaked on Blood Agar plates (5% sheep blood in Tryptic Soy Agar) and incubated at 37° C. for 24 hours. A single colony from each strain to be tested was inoculated in a TSB broth and grown for 12 hours, at 37° C. shaking at 225 rpm. For the bacterial biofilm inhibition assays, 1 μL of saturated overnight cell culture was added to either 80 μL of TSB-G, or TSB-G supplemented with the amino acid compound solution to be tested, in a 384-well plate. The cells were allowed to adhere to the plate for 60 minutes at 37° C. without shaking. The media was carefully aspirated and 80 μL of TSB-G, or TSB-G supplemented with the amino acid compound solution was added to the plate. The plate was further incubated for 24 hours at 37° C. without shaking. Media was carefully aspirated and the biofilm was measured by optical density at 600 nm. Eight or twelve replicates were performed for each tested condition and the reported values are normalized to the control (TSB-G media only). For the bacterial biofilm disruption assays, 80 μL of TSB-G was added to the plate, along with 1 μL of overnight cell culture. The cells were allowed to adhere to the plate for 60 minutes at 37° C. with no shaking. The media was carefully aspirated and 80 μL of TSB-G was added to the plate. The plate was further incubated for 24 hours at 37° C. with no shaking. Media was carefully aspirated from the mature biofilm and 80 μL of TSB-G, or TSB-G supplemented with the amino acid to be tested, was gently added to the plate. The plate was further incubated for 24 hours at 37° C. without shaking. Media was aspirated and the biofilm was measured by optical density at 600 nm. Twelve replicates were performed for each tested condition and the reported values are normalized to the control (TSB-G media only).
For disruption assay, 80 μl of TSB-G was added to the plate, along with 1 μl of overnight cell culture. The cells were allowed to adhere to the plate for 60 minutes at 37° C. with no shaking. The media was carefully aspirated and 80 μl of TSB-G was added to the plate. The plate was further incubated for 24 hours at 37° C. with no shaking. Media was carefully aspirated from the mature biofilm and 80 μl of TSB-G, or TSB-G supplemented with the amino acid to be tested, was added drop wise to the plate. The plate was further incubated for 24 hours at 37° C. with no shaking. […]

Experiment [5] concerns C. albicans biofilms. Kind of experiment: in vitro biofilm disruption assay, fungal. The format is cell-based, Candida albicans. The note with it: 1% amino acid, p<0.001. Here is the method: as §5, §3
as §4, with “The cells were allowed to adhere to the plate for 90 minutes at 37° C. shaking at 350 rpm. Loosely bound cells were washed once with phosphate buffered saline (PBS) and 80 μl of RPMI-1640, or RPMI-1640 supplemented with the amino acid compound solution was added to the plate. The plate was further incubated for 24 hours at 37° C. shaking at 350 rpm.” left out, “The cells were allowed to adhere to the plate for 90 minutes at 37° C. shaking at 350 rpm.” left out, “The plate was further incubated for 24 hours at 37° C. shaking at 350 rpm.” left out
The cells were allowed to adhere to the plate for 90 minutes at 37° C. with shaking (350 rpm). […] The plate was further incubated for 24 hours at 37° C. with shaking (350 rpm). […] The plate was further incubated for 24 hours at 37° C. with shaking (350 rpm). Media was carefully aspirated and the biofilm was measured by optical density at 600 nm.

These results are taken from US12226386B2, “Compositions and methods for treating biofilms” (The Regents of the University of California, priority 2018, dated 2025).

As to `CCC(N)C(=O)O` (stereo not shown) [2 Aminobutyric Acid, 2-aminobutyric acid], the “effect on bacterial or fungal biofilms” value in experiment [1] is recorded as “neutral”. Turning to `N[C@@H](Cc1c[nH]cn1)C(=O)O` [Histidine, L-histidine], the “effect on bacterial or fungal biofilms” value in experiment [1] is recorded as “neutral”. On to `NCCO` [Ethanolamine, ethanolamine], for which, in experiment [2], the “Reduce F Biofilm” value was “● (a single dot [i.e. ●] signifies minor effect (from about 10 to about 30% change))”. In addition, the “anti-biofilm properties against fungal biofilms” value (“anti-biofilm properties” below) in experiment [3] is “reduction by less than two-fold”.

Take `Cn1cncc1C[C@H](N)C(=O)O` [3-Methylhistidine, 3-methyl-L-histidine]: the “Promote F Biofilm” value in experiment [2] was “● (a single dot [i.e. ●] signifies minor effect (from about 10 to about 30% change))”. In addition, the inhibition at 1 % in experiment [4] fell in the range of 10 to 30%. The “effect on fungal biofilm growth” value in experiment [3] is reported as “support (improve) fungal biofilm growth”. As for `N[C@@H](COP(=O)(O)O)C(=O)O` [Phosphoserine, O-phospho-L-serine], the “Reduce F Biofilm” value in experiment [5] was “● (a single dot [i.e. ●] signifies minor effect (from about 10 to about 30% change))”. Moreover, the inhibition at 1 % in experiment [4] fell in the range of 10 to 30%. Also, the “anti-biofilm properties” value in experiment [3] is reported as “reduction by less than two-fold”. For `N[C@@H](Cc1c[nH]c2ccccc12)C(=O)O` [Tryptophan, L-tryptophan], in experiment [1], the “effect on bacterial or fungal biofilms” value was “neutral”. For the compound `CC(C)[C@H](N)C(=O)O` [Valine, L-valine], in experiment [2], the “Promote F Biofilm” value was “● (a single dot [i.e. ●] signifies minor effect (from about 10 to about 30% change))”. Besides, the inhibition at 1 % in experiment [4] fell in the range of 10 to 30%. Also, the “effect on fungal biofilm growth” value in experiment [3] is reported as “support (improve) fungal biofilm growth”. In the case of `N[C@@H](CCS)C(=O)O` [Homocysteine, L-homocysteine], in experiment [3] (Tables 4 and 5), the “effect on C. albicans biofilms in inhibition and disruption assays” value was “both inhibited and disrupted”. Moreover, the “anti-biofilm properties” value in experiment [3] is given as “reduction by less than two-fold”.

Consider `NC(=O)CC[C@H](N)C(=O)O` [Glutamine, L-glutamine], for which the “effect on bacterial or fungal biofilms” value in experiment [1] is “neutral”. `N[C@@H](Cc1ccc(O)cc1)C(=O)O` [Tyrosine, L-tyrosine]: in experiment [1], the “effect on bacterial or fungal biofilms” value is listed as “neutral”. Still for that read-out and setting: the entry for `Cn1cnc(C[C@H](N)C(=O)O)c1` [1-Methylhistidine, 1-methyl-L-histidine] is “neutral”.
